Assay results published in patent US20220273702A1, “HYDROGEN SULFIDE AND NITRIC OXIDE THERAPY FOR COVID-19 INFECTION” (Board of Supervisors of Louisiana State University and …, priority 2021, published 2022).

Tests used:
CSE = assay type: cell-based
p-eNOS = assay type: cell-based
sulfide = assay: Single COVID-19 case study: plasma sulfide (monobromobimane method); assay type: in vivo, human; conditions: single COVID-19 subject, 14 days post-treatment
C-reactive protein (CRP) = assay: Single COVID-19 case study: CRP levels; conditions: single COVID-19 subject, following remdesivir for 5 days; 1.35 and 1.77 mg/dL during infection; normal range 0.3-1.0 mg/dL
Total NO = assay: Single COVID-19 case study: plasma total NO (ozone-based chemiluminescence); conditions: single COVID-19 subject, 280 nM during infection, 400 nM baseline

Question: Which “restoration of CSE protein expression” value (CSE) does the source give for `C=CCSSSCC=C` [DATS, diallyl trisulfide] here?
Answer: Its value is “two-fold”.

Question: What about the “restoration of p-eNOS protein expression” value (p-eNOS) of the same compound?
Answer: The value was “two-fold”.

Question: Which results are given for `CCC(CC)COC(=O)[C@H](C)N[P@](=O)(OC[C@H]1O[C@@](C#N)(c2ccc3c(N)ncnn23)[C@H](O)[C@@H]1O)Oc1ccccc1` [remdesivir]?
Answer: sulfide level (sulfide): 1.447 µM; CRP level (C-reactive protein (CRP)): 0.78 mg/dL; Total NO level (Total NO; 5 days post-treatment): 200 nM; Total NO level (Total NO; 14 days post-treatment): 280 nM
